# Data: patent publication US8658591B2, “Multi-LEU peptides and analogues thereof as selective PACE4 inhibitors and effective antiproliferative agents” (priority 2008, dated 2014)
# Values joined by “and” are separate entries in the source; they are usually repeats but may differ in a detail not shown here. Equal values may be shown once.
# Tests used:
# DU145 cells = assay: Annexin-V-FITC/propidium iodide apoptosis assay, DU145; format: cell-based, human; details: DU145, 66 μM, 48 h
# Procedure: The annexin V assay is based on the observation that soon after initiating apoptosis, cells translocate the membrane phosphatidylserine from the inner face of the plasma membrane to the cell surface. Once on the cell surface, phosphatidylserine can be easily detected by staining with a fluorescent conjugate of Annexin V, a protein that has a high affinity for phosphatidylserine. Detection is analyzed by flow cytometry. […] This analysis was performed with a FITC-conjugated annexin-V, which has a strong affinity for these extracellular phosphatidylserines, and the fluorescent intercalating agent propidium iodide (PI). Cell lines were seeded in a 6-well plate at a density of 8×10^4 cells/well in complete growth medium. The next day, cells were washed twice with PBS and complete growth media with or without cisplatin (Sigma) at final concentration of 66 μM were added. After a 48 hours incubation period, growth media were collected and combined to the harvested cells obtained after trypsin treatment. The collected pellets were washed with PBS before staining. Then, cells were stained with the Annexin-V-FLUOS™ Staining Kit (Roche Applied science), which double labeled cells with annexin-V-fluorescein isothiocyanate (FITC) and propidium iodide (PI). Stained cells were then analyzed with FACScan flow cytometer (BD Biosciences).
# [1] = tested on: 4-2 cells (DU145 transfected with PACE4-SOFA-δRz); assay: Annexin-V-FITC/propidium iodide apoptosis assay, 4-2 cells; format: cell-based, human; details: 66 μM, 48 h
# Procedure: To determine if the reduced cell number observed in the 4-2 cell line, described previously in Example 3, was a consequence of the induction of the apoptosis, the translocation of phosphatidylserine from the inner to the outer leaflet of the plasma membrane was analyzed. This analysis was performed with a FITC-conjugated annexin-V, which has a strong affinity for these extracellular phosphatidylserines, and the fluorescent intercalating agent propidium iodide (PI). Cell lines were seeded in a 6-well plate at a density of 8×10^4 cells/well in complete growth medium. The next day, cells were washed twice with PBS and complete growth media with or without cisplatin (Sigma) at final concentration of 66 μM were added. After a 48 hours incubation period, growth media were collected and combined to the harvested cells obtained after trypsin treatment. The collected pellets were washed with PBS before staining. Then, cells were stained with the Annexin-V-FLUOS™ Staining Kit (Roche Applied science), which double labeled cells with annexin-V-fluorescein isothiocyanate (FITC) and propidium iodide (PI). Stained cells were then analyzed with FACScan flow cytometer (BD Biosciences).
# furin = furin (Homo sapiens, UniProt P09958); assay: Enzyme inhibition assay, fluorogenic substrate, furin; format: biochemical
# Chain of furin (P09958 108-794, species assumed): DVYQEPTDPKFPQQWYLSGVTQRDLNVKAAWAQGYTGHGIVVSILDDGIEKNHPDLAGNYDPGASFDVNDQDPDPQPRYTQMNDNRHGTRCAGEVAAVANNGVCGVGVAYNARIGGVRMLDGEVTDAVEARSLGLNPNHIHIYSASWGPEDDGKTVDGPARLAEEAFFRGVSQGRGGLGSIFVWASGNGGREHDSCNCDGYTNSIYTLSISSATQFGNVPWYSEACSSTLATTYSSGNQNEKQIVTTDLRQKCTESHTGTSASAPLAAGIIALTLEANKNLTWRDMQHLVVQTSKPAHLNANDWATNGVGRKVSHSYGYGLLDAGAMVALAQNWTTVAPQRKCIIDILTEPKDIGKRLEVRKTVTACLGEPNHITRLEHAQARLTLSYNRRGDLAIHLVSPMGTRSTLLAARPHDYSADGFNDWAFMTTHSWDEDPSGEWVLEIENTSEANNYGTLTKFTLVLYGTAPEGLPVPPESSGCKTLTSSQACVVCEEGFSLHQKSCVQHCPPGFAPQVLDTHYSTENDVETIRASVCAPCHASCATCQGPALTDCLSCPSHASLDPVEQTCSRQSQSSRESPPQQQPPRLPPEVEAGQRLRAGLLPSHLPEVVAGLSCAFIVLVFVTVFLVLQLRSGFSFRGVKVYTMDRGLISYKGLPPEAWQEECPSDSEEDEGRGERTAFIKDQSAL
# Procedure: (§1) Enzyme inhibition assays for furin (FIG. 5D) were performed in 100 mM Hepes pH 7.5, 1 mM CaCl2, 1 mM β-mercaptoethanol, 0.5 μg/μL BSA. Assays for PC2 (FIG. 5E) were performed in 20 mM Bis-Tris pH 5,7, 1 mM CaCl2, 0.1% Brij-30. Assays for PC1/3, PC4, PACE4, PC5/6 and PC7 (FIGS. 5F, G, A, B and C respectively) were performed in 20 mM Bis-Tis pH 6.5, 1 mM CaCl2. All assays were performed with the substrate pyroGlu-Arg-[…]-Lys-Arg-methyl-coumaryl-7-amide (SEQ ID NO: 33) (PyrRTKR-MCA (SEQ ID NO: 34)) (Bachem, CA) at 100 μM for furin, PC1/3, PC4, PACE4 and PC5/6, 200 μM for PC2 and 250 μM for PC7. Assays were carried out at 37° C. for 30-60 min and real-time fluorescence was measured with an excitation wavelength of 370 nm and an emission wavelength of 460 nm using a Gemini XS™ 96-well spectrofluorometer and SoftMaxPro4™ software (Molecular Devices, CA). Inhibitory peptides were added to the enzymes at decreasing concentrations from 100 μM to 50 nM and incubated 5 minutes prior to the addition of substrate.
# [2] = tested on: prostatic cell line DU145; assay: MTT cell proliferation index, DU145; format: cell-based, human; details: control = 100%, MTT after 48 hours
# Procedure: The effects of the PACE4 inhibitors on cell proliferation were evaluated. MTT assay was used to evaluate the effects of PACE4 inhibitors on cell proliferation. MTT (3-(4,5-Dimethylthiazol-2-yl)-2,5-diphenyltetrazolium bromide) assay is a standard colorimetric assay for measuring cellular proliferation. Yellow MTT is reduced to purple formazan in the mitochondria of living cells. This reduction takes place only when mitochondrial reductase enzymes are active. Conversion is directly related to the number of viable cells. The MTT assay is quantitative and more sensitive than viability using trypan blue and can also be adapted to 96 well formats, whereas trypan blue tests must be read individually. Because the MTT assay requires less cell manipulation than [^3H]thymidine incorporation assays (no cell harvesting or medium changes are necessary), the possibility of error is reduced and the standard deviation values are lower. […] Other assays also known can be used to determine the effects of an inhibitor on the proliferation of a cell.
# The index of cellular proliferation of cells treated with the ML and acetyl-ML (CH3CO—NH-[…]-CONH2 (SEQ ID NO: 5), see Table 2) peptides were measured using the colorimetric MTT assay (thiazolyl blue tetrazolium bromide; Sigma-Aldrich). Briefly, cells were seeded in 96-well plate (BD Biosciences) in triplicate with 100 μl of a 3.5×10^4 cells/ml cell suspension in complete growth medium. The following day, cells were carefully washed twice with PBS and media were replaced with 100 μl of either RPMI or conditioned growth media. Conditioned growth medium preparation consists in 1.2×10^5 cells seeded in 6-well plates with complete growth media. The next day, cells are washed twice with PBS and the media are replaced with 1 ml RPMI growth medium. 48 hours later, the conditioned media are collected, filtered through […] syringe filter units and incubated on different cell lines.
# 48 hours later, 20 μl of a MTT solution (5 mg/ml in PBS 1×) was added to each well for 4.5 h at 37° C./5% CO2. The media was then discarded and the cells were solubilized with 100 μl isopropanol/0.04 N HCl solution. The absorbance was measured at a wavelength of 550 nm with a reference at 650 nm in microplate reader (SpectraMax190™; Molecular Devices).
# [3] = tested on: gliobastoma cell line U251; assay: MTT cell proliferation index, U251; format: cell-based, human
# Procedure: (§2) The effects of the PACE4 inhibitors on cell proliferation were evaluated. MTT assay was used to evaluate the effects of PACE4 inhibitors on cell proliferation. MTT (3-(4,5-Dimethylthiazol-2-yl)-2,5-diphenyltetrazolium bromide) assay is a standard colorimetric assay for measuring cellular proliferation. Yellow MTT is reduced to purple formazan in the mitochondria of living cells. This reduction takes place only when mitochondrial reductase enzymes are active. Conversion is directly related to the number of viable cells. The MTT assay is quantitative and more sensitive than viability using trypan blue and can also be adapted to 96 well formats, whereas trypan blue tests must be read individually. […]
# (§3) The index of cellular proliferation of cells treated with the ML and acetyl-ML (CH3CO—NH-[…]-CONH2 (SEQ ID NO: 5), see Table 2) peptides were measured using the colorimetric MTT assay (thiazolyl blue tetrazolium bromide; Sigma-Aldrich). […]
# (§4) 48 hours later, 20 μl of a MTT solution (5 mg/ml in PBS 1×) was added to each well for 4.5 h at 37° C./5% CO2. […] The absorbance was measured at a wavelength of 550 nm with a reference at 650 nm in microplate reader (SpectraMax190™; Molecular Devices).
# [4] = tested on: sarcofibroma cell line HT1080; assay: MTT cell proliferation index, HT1080; format: cell-based, human
# Procedure: as §2, §3, §4
# PACE4 = biological target: T1, PACE4 (Homo sapiens, UniProt P29122); assay: Enzyme inhibition assay, fluorogenic substrate, PACE4; format: biochemical
# T1 sequence (P29122 150-969): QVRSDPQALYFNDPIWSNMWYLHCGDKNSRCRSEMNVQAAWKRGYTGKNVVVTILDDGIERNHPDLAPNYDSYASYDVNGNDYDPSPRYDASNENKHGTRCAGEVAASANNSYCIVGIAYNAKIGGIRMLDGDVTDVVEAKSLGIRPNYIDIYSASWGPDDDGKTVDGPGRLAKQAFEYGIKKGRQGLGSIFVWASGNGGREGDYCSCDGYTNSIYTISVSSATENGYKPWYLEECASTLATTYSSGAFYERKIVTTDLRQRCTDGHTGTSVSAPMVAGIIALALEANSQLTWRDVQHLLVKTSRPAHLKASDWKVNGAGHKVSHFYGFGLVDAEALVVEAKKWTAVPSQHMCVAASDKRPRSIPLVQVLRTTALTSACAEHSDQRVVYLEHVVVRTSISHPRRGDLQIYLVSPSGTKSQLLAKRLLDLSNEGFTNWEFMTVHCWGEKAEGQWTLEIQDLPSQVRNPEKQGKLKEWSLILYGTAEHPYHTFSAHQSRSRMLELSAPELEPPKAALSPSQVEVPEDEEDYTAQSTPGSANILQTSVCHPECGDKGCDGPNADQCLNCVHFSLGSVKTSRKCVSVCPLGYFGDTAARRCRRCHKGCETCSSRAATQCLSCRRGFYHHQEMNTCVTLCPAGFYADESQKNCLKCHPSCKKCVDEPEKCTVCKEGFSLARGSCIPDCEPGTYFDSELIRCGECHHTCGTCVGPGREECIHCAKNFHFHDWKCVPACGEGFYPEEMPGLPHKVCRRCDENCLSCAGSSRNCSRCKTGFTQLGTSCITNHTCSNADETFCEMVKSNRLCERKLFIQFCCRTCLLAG
# From the text: Those skilled in the art can easily determine PACE4 activity using routine experimentation. For example, the activity assay of PACE4 can be carried out in 96 well plates, and includes the use of a fluorogenic substrate, namely PyrRTKR-AMC (SEQ ID NO: 30) (AMC is amino-methyl-coumarin). The substrate and the purified enzyme are placed in the wells, and depending on the units of enzyme present, the AMC moiety will be cleaved at a certain rate, such a pmoles/sec. The resultant free AMC is now fluorescent and can be detected with a spectrofluorometer. The addition of inhibitors to the assay will yield progress curves that have lesser slopes. Based on these changes the inhibitory constants (Ki) is calculated (Fugere et al., 2002, J. Biol. Chem., 277:7648-56).
# as §1
# PC7 = biological target: T2, PC7 (Homo sapiens, UniProt Q16549); assay: Enzyme inhibition assay, fluorogenic substrate, PC7; format: biochemical; details: 20 mM Bis-Tis pH 6.5, 1 mM CaCl2, substrate 250 μM, 37° C.
# T2 sequence (Q16549 142-785): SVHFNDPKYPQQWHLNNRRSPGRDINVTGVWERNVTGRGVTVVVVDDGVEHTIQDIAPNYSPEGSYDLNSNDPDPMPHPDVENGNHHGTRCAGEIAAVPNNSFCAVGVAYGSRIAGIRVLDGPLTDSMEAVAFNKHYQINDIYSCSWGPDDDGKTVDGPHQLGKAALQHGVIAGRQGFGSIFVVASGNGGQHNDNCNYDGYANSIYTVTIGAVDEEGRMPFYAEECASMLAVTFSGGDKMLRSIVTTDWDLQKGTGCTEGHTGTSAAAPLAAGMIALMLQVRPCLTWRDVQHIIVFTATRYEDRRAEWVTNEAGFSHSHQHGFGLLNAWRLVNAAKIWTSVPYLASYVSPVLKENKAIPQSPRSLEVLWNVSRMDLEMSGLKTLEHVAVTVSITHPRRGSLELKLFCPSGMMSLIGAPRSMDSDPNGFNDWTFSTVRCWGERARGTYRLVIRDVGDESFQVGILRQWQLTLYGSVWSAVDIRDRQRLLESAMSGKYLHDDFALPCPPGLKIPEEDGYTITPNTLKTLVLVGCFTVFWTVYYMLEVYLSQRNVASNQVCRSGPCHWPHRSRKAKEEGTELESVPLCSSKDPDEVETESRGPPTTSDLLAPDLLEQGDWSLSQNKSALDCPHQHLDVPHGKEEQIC
# Procedure: as §1
# PC5/6 = PC5/6 (Homo sapiens, UniProt Q92824); assay: Enzyme inhibition assay, fluorogenic substrate, PC5/6; format: biochemical
# Chain of PC5/6 (Q92824 115-1860): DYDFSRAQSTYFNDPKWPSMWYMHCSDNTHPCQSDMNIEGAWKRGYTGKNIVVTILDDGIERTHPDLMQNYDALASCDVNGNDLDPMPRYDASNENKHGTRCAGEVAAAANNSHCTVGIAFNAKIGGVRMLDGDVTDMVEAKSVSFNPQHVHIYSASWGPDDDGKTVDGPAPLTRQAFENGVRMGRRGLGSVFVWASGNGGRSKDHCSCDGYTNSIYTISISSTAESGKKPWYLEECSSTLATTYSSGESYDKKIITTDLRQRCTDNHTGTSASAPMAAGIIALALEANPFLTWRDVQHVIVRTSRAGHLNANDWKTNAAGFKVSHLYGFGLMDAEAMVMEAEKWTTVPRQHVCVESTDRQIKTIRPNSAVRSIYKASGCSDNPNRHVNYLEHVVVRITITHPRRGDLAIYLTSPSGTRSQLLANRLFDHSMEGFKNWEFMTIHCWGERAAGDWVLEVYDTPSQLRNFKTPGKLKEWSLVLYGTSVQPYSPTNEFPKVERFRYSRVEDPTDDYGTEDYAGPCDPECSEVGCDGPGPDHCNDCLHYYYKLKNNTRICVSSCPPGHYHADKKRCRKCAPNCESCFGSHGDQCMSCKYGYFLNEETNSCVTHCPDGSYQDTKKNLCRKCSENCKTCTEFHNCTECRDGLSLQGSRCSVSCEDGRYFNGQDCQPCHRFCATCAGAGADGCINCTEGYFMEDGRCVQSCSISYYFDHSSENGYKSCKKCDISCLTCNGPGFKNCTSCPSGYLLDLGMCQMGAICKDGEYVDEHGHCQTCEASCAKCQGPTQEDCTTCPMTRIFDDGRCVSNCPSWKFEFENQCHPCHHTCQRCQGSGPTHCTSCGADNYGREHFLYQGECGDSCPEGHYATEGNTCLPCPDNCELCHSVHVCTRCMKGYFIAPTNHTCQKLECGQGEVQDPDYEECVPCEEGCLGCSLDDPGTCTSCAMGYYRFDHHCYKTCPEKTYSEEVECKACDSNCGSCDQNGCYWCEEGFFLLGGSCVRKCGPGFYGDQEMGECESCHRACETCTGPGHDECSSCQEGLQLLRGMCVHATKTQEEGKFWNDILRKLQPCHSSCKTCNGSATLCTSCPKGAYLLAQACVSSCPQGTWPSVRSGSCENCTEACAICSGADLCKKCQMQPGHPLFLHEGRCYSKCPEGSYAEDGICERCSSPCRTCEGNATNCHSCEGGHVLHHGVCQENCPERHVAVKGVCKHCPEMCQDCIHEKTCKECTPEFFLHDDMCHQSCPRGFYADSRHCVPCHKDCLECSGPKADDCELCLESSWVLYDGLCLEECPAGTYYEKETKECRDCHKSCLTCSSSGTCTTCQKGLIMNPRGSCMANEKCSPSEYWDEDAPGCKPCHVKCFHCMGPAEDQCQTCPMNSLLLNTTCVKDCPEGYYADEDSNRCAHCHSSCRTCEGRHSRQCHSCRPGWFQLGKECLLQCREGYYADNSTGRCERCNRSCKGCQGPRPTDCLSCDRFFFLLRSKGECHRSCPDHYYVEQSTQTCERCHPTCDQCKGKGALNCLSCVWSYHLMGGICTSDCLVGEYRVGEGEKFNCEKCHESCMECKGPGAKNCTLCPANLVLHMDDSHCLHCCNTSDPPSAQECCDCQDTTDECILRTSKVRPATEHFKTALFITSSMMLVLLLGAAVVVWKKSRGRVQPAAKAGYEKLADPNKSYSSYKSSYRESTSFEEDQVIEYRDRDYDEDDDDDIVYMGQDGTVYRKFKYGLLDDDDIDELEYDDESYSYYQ
# Procedure: as §1
# PC1/3 = biological target: T3, PC1/3 (Homo sapiens, UniProt P29120); assay: Enzyme inhibition assay, fluorogenic substrate, PC1/3; format: biochemical
# T3 sequence (P29120 111-753): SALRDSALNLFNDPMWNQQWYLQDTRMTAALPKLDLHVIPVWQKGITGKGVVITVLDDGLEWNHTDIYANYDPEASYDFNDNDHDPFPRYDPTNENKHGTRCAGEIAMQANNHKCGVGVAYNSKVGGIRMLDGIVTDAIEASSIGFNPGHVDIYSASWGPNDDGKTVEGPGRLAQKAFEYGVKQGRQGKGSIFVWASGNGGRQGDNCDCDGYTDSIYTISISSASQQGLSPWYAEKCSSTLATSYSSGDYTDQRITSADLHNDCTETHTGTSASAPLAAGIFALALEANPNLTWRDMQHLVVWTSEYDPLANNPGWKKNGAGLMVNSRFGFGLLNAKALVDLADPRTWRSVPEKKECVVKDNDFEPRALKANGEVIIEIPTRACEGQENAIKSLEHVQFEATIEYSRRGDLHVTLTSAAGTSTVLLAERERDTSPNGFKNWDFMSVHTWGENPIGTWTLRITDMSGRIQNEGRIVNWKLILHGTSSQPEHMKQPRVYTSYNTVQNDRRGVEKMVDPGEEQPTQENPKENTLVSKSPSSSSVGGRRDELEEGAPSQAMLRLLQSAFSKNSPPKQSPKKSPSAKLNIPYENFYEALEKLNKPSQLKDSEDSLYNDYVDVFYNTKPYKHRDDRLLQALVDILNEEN
# Procedure: as §1
Molecule,"inhibition potency on furin, in words (furin)",Ki (PC7),"Cell proliferation index ([2]; DU145, 1 μM peptide) [%]","Cell proliferation index ([2]; DU145, 10 μM peptide) [%]","Cell proliferation index ([2]; DU145, 50 μM peptide) [%]","Cell proliferation index ([2]; DU145, 100 μM peptide) [%]","effect on cell proliferation index, in words [3]","effect on cell proliferation index, in words [4]",other results
N.N.[Cl][Pt][Cl] [cisplatin],–,–,–,–,–,–,–,–,annexin-V positivity (DU145 cells; untreated 2%): 30%; PI staining (dead cells) (DU145 cells; untreated 6%): 12%; annexin-V positivity ([1]; untreated 3%): 17%; PI staining (dead cells) ([1]; untreated 7%): 16%
CH3CO—NH-LLLLRVKR-NH2 (Ac-LLLLRVKR-NH2) [acetyl ML],–,–,63.84,41.91,25.79,24.05,significant effects,significant effects,–
CC(C)C[C@H](NC(=O)[C@H](CC(C)C)NC(=O)[C@H](CC(C)C)NC(=O)[C@@H](N)CC(C)C)C(=O)N[C@@H](CC(C)C)C(=O)N[C@@H](CCCNC(=N)N)C(=O)N[C@H](C(=O)N[C@@H](CCCCN)C(=O)N[C@@H](CCCNC(=N)N)C(N)=O)C(C)C [5 Leu],–,0.035 to 0.05 µM,–,–,–,–,–,–,–

# Now from value to molecule, other results behind:
"inhibition potency on furin, in words (furin)",Ki (PC7),Molecule,"Cell proliferation index ([2]; DU145, 1 μM peptide) [%]","Cell proliferation index ([2]; DU145, 10 μM peptide) [%]","Cell proliferation index ([2]; DU145, 50 μM peptide) [%]","Cell proliferation index ([2]; DU145, 100 μM peptide) [%]","effect on cell proliferation index, in words [3]","effect on cell proliferation index, in words [4]",other results
mid-nanomolar inhibitors,–,"LRVKR [LRVKR—NH2, LRVKR-NH2]",–,–,–,–,–,–,–
–,0.035 to 0.05 µM and 0.05 µM,H-LLLLRVKR-NH2 [ML],97.73,92.03,72.57,54.70,significant effects,significant effects,"inhibition potency on PACE4, in words (PACE4): nanomolar range; Ki (PACE4; 20 mM Bis-Tis pH 6.5, 1 mM CaCl2, substrate 100 μM, 37° C.): 0.006 µM; more effective on PACE4 than the other PCs (PACE4; ratio of Ki values, other PCs vs PACE4): ≥ 9 folds"
mid-nanomolar inhibitors,–,"LLRVKR [LLRVKR—NH2, LLRVKR-NH2]",–,–,–,–,–,–,"inhibition potency on PC5/6, in words (PC5/6): mid-low nanomolar range; inhibition potency on PC1/3, in words (PC1/3): best inhibited"
